This note sets out measurements from ChEMBL document CHEMBL6182898, “Design, synthesis and bioevaluation of novel hydrazide derivatives as enhancers of immunotherapy and DNA-damage response in antitumor therapy” (Eur J Med Chem, 2025).

pIC50: −log10 of the molar value. Where only a bound is given, the exact number is not on record here.

Sequence of Histone deacetylase 1 (Q13547 whole entry): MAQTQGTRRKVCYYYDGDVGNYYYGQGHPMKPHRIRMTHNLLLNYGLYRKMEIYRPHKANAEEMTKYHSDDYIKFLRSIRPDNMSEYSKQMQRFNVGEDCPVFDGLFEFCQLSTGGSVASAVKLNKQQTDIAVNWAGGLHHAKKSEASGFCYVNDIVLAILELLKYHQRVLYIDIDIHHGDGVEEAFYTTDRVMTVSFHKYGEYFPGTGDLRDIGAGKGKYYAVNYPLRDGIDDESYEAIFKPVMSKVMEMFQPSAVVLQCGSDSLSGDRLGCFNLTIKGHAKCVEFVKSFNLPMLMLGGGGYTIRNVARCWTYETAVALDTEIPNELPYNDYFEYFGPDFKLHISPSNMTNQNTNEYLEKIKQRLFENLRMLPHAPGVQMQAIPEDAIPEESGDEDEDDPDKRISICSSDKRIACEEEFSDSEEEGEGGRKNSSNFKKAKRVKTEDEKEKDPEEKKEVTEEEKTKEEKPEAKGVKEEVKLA

The first data set relates to SK-OV-3. Put plainly: Antiproliferative activity against human SK-OV-3 cells incubated for 72 hrs by MTT assay. The format is functional, cell-based. Particulars: SK-OV-3, 72 h. For orientation: Formazan colour is commonly taken as a measure of viable cells.
One may read the pIC50 as the negative decadic logarithm of the IC50, by convention in mol/L. Higher therefore signals a small IC50. Molecule `CCCNNC(=O)c1ccc(NC(=O)c2cnc(-c3ccccc3C)s2)cc1` had a pIC50 of 5.25.
Regarding `CCCNNC(=O)CCCCCCNC(=O)c1cnc(-c2ccc3ccccc3c2)s1`, the pIC50 is 5.35.
For the molecule `CCCNNC(=O)CCCCCCNC(=O)c1cnc(-c2ccc(Br)cc2)s1`, the pIC50 is 4.89.

Another data set addresses Histone deacetylase 1 (Homo sapiens, UniProt Q13547). Briefly: Inhibition of HDAC1 (unknown origin).
Settings: not given
`CCCNNC(=O)c1ccc(NC(=O)c2cnc(-c3ccccc3C)s2)cc1` gave a pIC50 of 5.79.
`CCCNNC(=O)CCCCCCNC(=O)c1cnc(-c2ccc3ccccc3c2)s1`: the pIC50 was 5.49.
Still for that read-out and setting: the result for `CCCNNC(=O)CCCCCCNC(=O)c1cnc(-c2ccc(Br)cc2)s1` reads below 5.30.

A further data set deals with T1, Protein deacetylase HDAC6 (Homo sapiens, UniProt Q9UBN7).
T1 sequence (Q9UBN7 whole entry): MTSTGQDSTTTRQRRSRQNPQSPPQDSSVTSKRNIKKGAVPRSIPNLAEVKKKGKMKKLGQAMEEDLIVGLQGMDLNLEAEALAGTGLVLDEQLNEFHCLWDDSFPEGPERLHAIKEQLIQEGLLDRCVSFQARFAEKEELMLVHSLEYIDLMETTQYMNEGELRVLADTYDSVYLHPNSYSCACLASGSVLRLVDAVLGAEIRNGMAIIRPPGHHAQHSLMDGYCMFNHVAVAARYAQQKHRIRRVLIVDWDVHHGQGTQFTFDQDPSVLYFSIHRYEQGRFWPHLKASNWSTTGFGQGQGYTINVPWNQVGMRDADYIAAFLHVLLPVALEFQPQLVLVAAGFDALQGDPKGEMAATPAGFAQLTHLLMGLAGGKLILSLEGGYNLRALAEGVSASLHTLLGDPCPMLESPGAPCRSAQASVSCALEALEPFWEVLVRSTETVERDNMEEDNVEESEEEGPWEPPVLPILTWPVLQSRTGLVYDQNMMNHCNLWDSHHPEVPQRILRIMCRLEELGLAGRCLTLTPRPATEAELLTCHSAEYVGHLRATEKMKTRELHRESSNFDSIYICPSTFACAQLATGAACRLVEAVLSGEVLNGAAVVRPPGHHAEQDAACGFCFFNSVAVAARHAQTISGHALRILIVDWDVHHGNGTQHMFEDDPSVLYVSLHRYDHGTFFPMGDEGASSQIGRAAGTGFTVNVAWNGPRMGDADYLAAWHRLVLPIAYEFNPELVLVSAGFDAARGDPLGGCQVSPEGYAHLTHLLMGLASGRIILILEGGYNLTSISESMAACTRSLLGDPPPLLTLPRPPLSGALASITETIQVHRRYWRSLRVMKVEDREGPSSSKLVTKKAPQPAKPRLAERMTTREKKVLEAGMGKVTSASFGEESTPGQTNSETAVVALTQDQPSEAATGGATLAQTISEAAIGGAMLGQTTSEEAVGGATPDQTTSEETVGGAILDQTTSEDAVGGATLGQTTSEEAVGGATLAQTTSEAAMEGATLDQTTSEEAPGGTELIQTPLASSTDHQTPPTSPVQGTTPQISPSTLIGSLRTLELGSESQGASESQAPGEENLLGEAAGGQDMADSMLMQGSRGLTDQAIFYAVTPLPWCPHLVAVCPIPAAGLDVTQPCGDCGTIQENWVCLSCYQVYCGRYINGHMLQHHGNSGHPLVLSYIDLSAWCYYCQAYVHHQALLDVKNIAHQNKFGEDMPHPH
Put plainly: Inhibition of HDAC6 (unknown origin).
Settings: not given
`CCCNNC(=O)c1ccc(NC(=O)c2cnc(-c3ccccc3C)s2)cc1`: the pIC50 was below 5.00.
Molecule `CCCNNC(=O)CCCCCCNC(=O)c1cnc(-c2ccc3ccccc3c2)s1` gave a pIC50 below 5.00.
`CCCNNC(=O)CCCCCCNC(=O)c1cnc(-c2ccc(Br)cc2)s1` had a pIC50 below 5.00.

A further data set deals with B16-F10. Put plainly: cells. The format is functional. To be noted: Mus musculus, time 72 hrs.
For orientation: inhibition means how much of the control response was suppressed. Higher therefore signals strong suppression. On to `CCCNNC(=O)c1ccc(NC(=O)c2cnc(-c3ccccc3C)s2)cc1`, for which the inhibition at 10 µM was below 50%.
`CCCNNC(=O)CCCCCCNC(=O)c1cnc(-c2ccc3ccccc3c2)s1` yielded an inhibition at 10 µM of 57.6%.
Consider `CCCNNC(=O)CCCCCCNC(=O)c1cnc(-c2ccc(Br)cc2)s1`, for which at 10 µM the inhibition was 50.7%.

A further data set has as its system K562. Put plainly: cells. Format: functional. Particulars: Homo sapiens, time 72 hrs.
In turn, `CCCNNC(=O)c1ccc(NC(=O)c2cnc(-c3ccccc3C)s2)cc1` displayed an inhibition at 10 µM of 73.2%.
`CCCNNC(=O)CCCCCCNC(=O)c1cnc(-c2ccc3ccccc3c2)s1` had an inhibition at 10 µM below 50%.
On the same count and under the same terms, with `CCCNNC(=O)CCCCCCNC(=O)c1cnc(-c2ccc(Br)cc2)s1` the figure was below 50%.

Tested on in the next data set: not listed separately
Put plainly: Antiproliferative activity against human HK-2 cells incubated for 72 hrs by MTT assay.
Settings: not given
Usually IC50 stands for the concentration at which inhibition is half-maximal. A high value points to lower potency. `CCCNNC(=O)c1ccc(NC(=O)c2cnc(-c3ccccc3C)s2)cc1` came in with an IC50 at 72 h of 11.9 µM.
Still for that read-out and setting: the result for `CCCNNC(=O)CCCCCCNC(=O)c1cnc(-c2ccc3ccccc3c2)s1` reads 10.8 µM; that for `CCCNNC(=O)CCCCCCNC(=O)c1cnc(-c2ccc(Br)cc2)s1`, 13.9 µM.

The subject of a further data set is HCT-116. Briefly: cells. The format is functional. Particulars: Homo sapiens, time 72 hrs.
`CCCNNC(=O)c1ccc(NC(=O)c2cnc(-c3ccccc3C)s2)cc1` yielded an inhibition at 10 µM of 67.1%.
The same measure, in the same setting: with `CCCNNC(=O)CCCCCCNC(=O)c1cnc(-c2ccc3ccccc3c2)s1` the figure was 94.7%; with `CCCNNC(=O)CCCCCCNC(=O)c1cnc(-c2ccc(Br)cc2)s1`, 59.3%.

The next data set relates to 4T1. Put plainly: cells. The format is functional. To be noted: Mus musculus, time 72 hrs.
`CCCNNC(=O)c1ccc(NC(=O)c2cnc(-c3ccccc3C)s2)cc1` yielded an inhibition at 10 µM of 26.4%.
For the molecule `CCCNNC(=O)CCCCCCNC(=O)c1cnc(-c2ccc3ccccc3c2)s1`, the inhibition at 10 µM is below 20%.
The same measure, in the same setting: the result for `CCCNNC(=O)CCCCCCNC(=O)c1cnc(-c2ccc(Br)cc2)s1` reads 53%.

The next data set relates to K562. Put plainly: Antiproliferative activity against human K562 cells incubated for 72 hrs by CCK8 assay. Format: functional, cell-based. To be noted: K562, 72 h.
For the molecule `CCCNNC(=O)c1ccc(NC(=O)c2cnc(-c3ccccc3C)s2)cc1`, the pIC50 is 5.45.
On the same count and under the same terms, the result for `CCCNNC(=O)CCCCCCNC(=O)c1cnc(-c2ccc3ccccc3c2)s1` reads 5.57; that for `CCCNNC(=O)CCCCCCNC(=O)c1cnc(-c2ccc(Br)cc2)s1`, 5.09.

A further data set relates to SK-OV-3. Briefly: cells. Format: functional. To be noted: Homo sapiens, time 72 hrs.
`CCCNNC(=O)c1ccc(NC(=O)c2cnc(-c3ccccc3C)s2)cc1` yielded an inhibition at 10 µM of 56.2%.
For the molecule `CCCNNC(=O)CCCCCCNC(=O)c1cnc(-c2ccc3ccccc3c2)s1`, testing at 10 µM gave an inhibition of 81.5%.
`CCCNNC(=O)CCCCCCNC(=O)c1cnc(-c2ccc(Br)cc2)s1` had an inhibition at 10 µM of 60.8%.

The subject of another data set is HCT-116. Briefly: Antiproliferative activity against human HCT-116 cells incubated for 72 hrs by MTT assay. To be noted: HCT-116, 72 h. Format: functional, cell-based.
The molecule `CCCNNC(=O)c1ccc(NC(=O)c2cnc(-c3ccccc3C)s2)cc1` showed a pIC50 of 5.46.
On to `CCCNNC(=O)CCCCCCNC(=O)c1cnc(-c2ccc3ccccc3c2)s1`, for which the pIC50 was 5.38.
Still for that read-out and setting: the result for `CCCNNC(=O)CCCCCCNC(=O)c1cnc(-c2ccc(Br)cc2)s1` reads 6.10.

The test system of another data set is 4T1. Put plainly: Antiproliferative activity against mouse 4T1 cells incubated for 72 hrs by MTT assay. The format is functional, cell-based. Particulars: 4T1, 72 h.
In turn, `CCCNNC(=O)c1ccc(NC(=O)c2cnc(-c3ccccc3C)s2)cc1` had a pIC50 of 4.84.
Turning to `CCCNNC(=O)CCCCCCNC(=O)c1cnc(-c2ccc3ccccc3c2)s1`, the pIC50 is 4.84.
The same measure, in the same setting: the result for `CCCNNC(=O)CCCCCCNC(=O)c1cnc(-c2ccc(Br)cc2)s1` reads 4.84.

A further data set relates to B16-F10. Briefly: Antiproliferative activity against mouse B16-F10 cells incubated for 72 hrs by MTT assay. The format is functional, cell-based. Particulars: B16-F10, 72 h.
In turn, `CCCNNC(=O)c1ccc(NC(=O)c2cnc(-c3ccccc3C)s2)cc1` showed a pIC50 of 4.92.
On the same count and under the same terms, with `CCCNNC(=O)CCCCCCNC(=O)c1cnc(-c2ccc3ccccc3c2)s1` the figure was 4.95; with `CCCNNC(=O)CCCCCCNC(=O)c1cnc(-c2ccc(Br)cc2)s1`, 5.27.

In another data set the target is Histone deacetylase 3 (Homo sapiens, UniProt O15379). Briefly: Inhibition of HDAC3 (unknown origin).
Sequence of Histone deacetylase 3 (O15379 whole entry): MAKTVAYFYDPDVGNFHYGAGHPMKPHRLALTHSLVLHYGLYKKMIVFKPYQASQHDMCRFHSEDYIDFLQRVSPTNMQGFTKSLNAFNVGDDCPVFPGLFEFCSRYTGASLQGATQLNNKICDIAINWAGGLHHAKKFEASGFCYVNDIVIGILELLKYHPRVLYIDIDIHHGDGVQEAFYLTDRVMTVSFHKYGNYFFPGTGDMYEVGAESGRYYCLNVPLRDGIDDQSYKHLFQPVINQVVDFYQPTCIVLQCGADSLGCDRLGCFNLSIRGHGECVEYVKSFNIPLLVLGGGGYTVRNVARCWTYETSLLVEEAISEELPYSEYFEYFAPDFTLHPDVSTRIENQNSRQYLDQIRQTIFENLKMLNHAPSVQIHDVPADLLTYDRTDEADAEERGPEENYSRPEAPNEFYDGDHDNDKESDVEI
Settings: not given
Regarding `CCCNNC(=O)c1ccc(NC(=O)c2cnc(-c3ccccc3C)s2)cc1`, the pIC50 is 6.06.
Still for that read-out and setting: the result for `CCCNNC(=O)CCCCCCNC(=O)c1cnc(-c2ccc3ccccc3c2)s1` reads 6.26; that for `CCCNNC(=O)CCCCCCNC(=O)c1cnc(-c2ccc(Br)cc2)s1`, 5.46.

Another data set concerns the target T2, Histone deacetylase 8 (Homo sapiens, UniProt Q9BY41).
T2 sequence (Q9BY41 whole entry): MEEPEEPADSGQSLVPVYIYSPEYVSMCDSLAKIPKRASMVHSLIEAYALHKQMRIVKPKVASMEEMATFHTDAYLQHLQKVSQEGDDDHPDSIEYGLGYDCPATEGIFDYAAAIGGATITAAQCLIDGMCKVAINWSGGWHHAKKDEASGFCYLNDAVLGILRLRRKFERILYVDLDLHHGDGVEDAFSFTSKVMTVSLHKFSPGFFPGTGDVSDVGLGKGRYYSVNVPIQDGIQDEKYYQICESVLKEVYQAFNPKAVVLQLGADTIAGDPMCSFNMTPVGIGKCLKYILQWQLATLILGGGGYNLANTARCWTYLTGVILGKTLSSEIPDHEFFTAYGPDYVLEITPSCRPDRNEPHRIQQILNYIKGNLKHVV
Briefly: Inhibition of HDAC8 (unknown origin).
Settings: not given
`CCCNNC(=O)c1ccc(NC(=O)c2cnc(-c3ccccc3C)s2)cc1` showed a pIC50 below 5.00.
Consider `CCCNNC(=O)CCCCCCNC(=O)c1cnc(-c2ccc3ccccc3c2)s1`, for which the pIC50 is below 5.00.
`CCCNNC(=O)CCCCCCNC(=O)c1cnc(-c2ccc(Br)cc2)s1`: the pIC50 was below 5.00.
